This is an account of results in paper PMC9864219, “Chemodiversity and Anti-Leukemia Effect of Metabolites from Penicillium setosum CMLD 18” (Metabolites, 2022).

For data set [1], the system named is L1210 cells. The arrangement: method as in PMID 6320499. The note with it: read-out: IC50 inhibiting L1210 cells; cited from earlier work.
Data set [2] relates to Jurkat. The arrangement: method as in PMID 28509552. The note with it: Alamar Blue, 72 hrs; cited from earlier work. In general terms: Alamar Blue is a resazurin reagent that responds to reducing activity.
The test system of data set [3] is K-562. The arrangement: method as in PMID 28509552. The settings on record: Alamar Blue, 72 hrs; cited from earlier work.
The test system of data set [4] is Jurkat. Nature of the data set: Resazurin cell viability assay, Jurkat. The settings on record: for cell viability: 100 μM, 48 h, resazurin (Figure 5B). Format: cell-based, human. The source says: (§1) Human leukemic cell lines (Kasumi-1, KG-1, MOLT-4, and Jurkat) were obtained from the American Type Culture Collection (ATCC). KG-1 cells were maintained in Iscove’s modified Dulbecco’s medium (IMDM) supplemented with 20% fetal bovine serum (FBS) (Cultilab, Campinas, Brazil), according to criteria adopted by the cell bank (https://www.atcc.org/products/ccl-246#detailed-product-information) accessed on 10 November 2021, whereas the other lineages were maintained in Roswell Park Memorial Institute medium (RPMI 1640) (Sigma Aldrich, St. Louis, MI, USA) supplemented with 10% FBS. All cells were cultured in a medium containing 100 U/mL penicillin (Sigma Aldrich, St. Louis, MI, USA) and 100 μg/mL streptomycin (Sigma Aldrich, St. Louis, MI, USA) and in a humidified incubator containing 5% CO2 at 37 °C. Passage numbers for all leukemic cell lines were between 3 and 6.
(§2) A resazurin assay (Sigma Aldrich, St. Louis, MI, USA) was used to screen and assess the activity of extracts, fractions, and isolated compounds against leukemic cell lines. Briefly, 10^5 cells/mL were seeded in 96-well plates containing supplemented medium. Cells were treated in the presence or absence of compounds for 48 h using a high concentration (100 µg/mL or 100 µM to isolated compounds) or a concentration–response curve (100, 50, 25, 12.5, 6.25, 3.12, 1.56, and 0.78 µM) after 24 h of treatment with isolated compounds was constructed. After treatment, the cell culture medium was removed, and 100 µL of medium with 10% Resazurin solution was added; after 4 h of incubation, the fluorescence was measured (excitation 530 nm, emission 590 nm) in a FlexStation 3 microplate reader (Molecular Devices, San Jose, CA, USA). Each experiment was performed in triplicate.

For data set [5], the system named is Kasumi-1. Nature of the data set: Resazurin cell viability assay, Kasumi-1. It is filed as cell-based, human. The note with it: for cell viability: Kasumi-1, 100 μM, 48 h, resazurin (Figure 5A).
From the text: as §1, §2

In data set [6] the test system is Hela. Also on record: method as in PMID 28509552. The note with it: Alamar Blue, 72 hrs; cited from earlier work.
For data set [7], the target named is ACL, an ATP citrate lyase. Also on record: method as in PMID 27997879. The settings on record: read-out: IC50 inhibitory activity against ACL; cited from earlier work.
In data set [8] the test system is normal PBMC cells. Nature of the data set: Resazurin cell viability assay, normal PBMC. Format: cell-based, human. The note with it: concentration-response curve, 24 h. As to the method:
Peripheral blood mononuclear cells (PBMCs) were obtained from three healthy donors. Human monocytes were collected from healthy donors after informed patient consent was obtained. Separation of mononuclear cells was performed by gradient centrifugation methods using Ficoll Histopaque-1077 (1.077 g/cm^3) (Sigma Aldrich, St. Louis, MI, USA) following the manufacturer’s instructions. The use of human samples was approved by the local Ethical Committee of the Universidade Federal de Mato Grosso do Sul (CAAE35853720.2.0000.0021). Cells were maintained in IMDM supplemented with 20% FBS, 100 U/mL penicillin, and 100 μg/mL streptomycin in a humidified atmosphere at 37 °C in 5% CO2.
A resazurin assay (Sigma Aldrich, St. Louis, MI, USA) was used to screen and assess the activity of extracts, fractions, and isolated compounds against leukemic cell lines. Briefly, 10^5 cells/mL were seeded in 96-well plates containing supplemented medium. […] After treatment, the cell culture medium was removed, and 100 µL of medium with 10% Resazurin solution was added; after 4 h of incubation, the fluorescence was measured (excitation 530 nm, emission 590 nm) in a FlexStation 3 microplate reader (Molecular Devices, San Jose, CA, USA). […]

The test system of data set [9] is cleaved caspase-3 in Jurkat. Nature of the data set: Intracellular labeling of cleaved caspase-3 by flow cytometry, Jurkat. Format: cell-based, human. The settings on record: 50 μM, 24 h. As to the method:
(§3) Kasumi-1 and Jurkat cells (10^5/mL) were treated for 24 h with EC50, 50, or 50 µM 10, respectively. Then, cells were fixed with BD Cytofix (BD Biosciences, Mississauga, ON, Canadá) for 15 min, washed with BD Perm/Wash buffer, and permeabilized with Perm Buffer III (BD, USA) for 30 min at room temperature. In order to label cleaved caspase-3 protein (Cell Signaling, Danvers, MA, USA), cells were incubated for 1 h with primary antibody (1:800). Anti-rabbit IgG secondary antibodies conjugated with Alexa Fluor 488 (Thermo Fisher Scientific, Waltham, MA, USA) (1:1000) were incubated for at least 40 min, and the fluorescence was measured using an Accuri C6 flow cytometer and FlowJo software to analyze the results; 20,000 events were collected per sample. Protein analyses were performed using GM fluorescence intensity.
Background: A flow cytometer gives signals particle by particle.

Data set [10] has as its system cleaved caspase-3 in Kasumi-1. The data set can be described thus: Intracellular labeling of cleaved caspase-3 by flow cytometry, Kasumi-1. It is filed as cell-based, human. The note with it: Kasumi-1, 50 μM, 24 h. The protocol: as §3
Data set [11] has as its system CD11b expression in Kasumi-1 cells. The data set can be described thus: Cell differentiation by immunophenotyping (CD11b). Format: cell-based, human. The note with it: Kasumi-1, 10 μM, 72 h. As to the method:
Cells (10^5/mL) were treated with 10 μM Compound 10 for 72 h. Then, the cells were collected and stained with CD11b-Cy7/PE (2 μL) (BD, USA). The measurements of fluorescence intensity were performed using an Accuri C6 flow cytometer (BD Biosciences, Mississauga, Canadá); 40,000 events were collected per sample. Results were expressed as GM fluorescence intensity.

Data set [12] deals with HL-60. Also on record: method as in doi:10.1016/j.cclet.2017.09.006. The settings on record: acute myeloid leukemia cell line; read-out: IC50 against the HL-60 lineage; cited from earlier work.
Data set [13] relates to Jurkat. The data set can be described thus: Annexin V-FITC/7-AAD flow cytometry assay, Jurkat. It is filed as cell-based, human. The note with it: 50 μM, 24 h. As to the method: (§4) An Annexin V-FITC/7-AAD double staining assay was performed to evaluate the proapoptotic effect of 10. Kasumi-1 and Jurkat cells (10^5/mL) were treated for 24 h with EC50, 50, or 50 µM 10, respectively, or Staurosporine (1 µM) (Sigma Aldrich, St. Louis, MI, USA). Then, the cells were resuspended in annexin binding buffer (0.14 M NaCl, 2.5 mM CaCl2, 0.01 M HEPES, pH 7.4) and incubated at room temperature with 1 μL and 2 μL of annexin V-FITC and 7-AAD (Becton Dickinson, Covington, GA, USA), respectively, for 30 min. Data were analyzed using FlowJo V10 (Becton Dickinson—BD, USA) software; 20,000 events were collected per sample.

Data set [14] has as its system Kasumi-1. Nature of the data set: Annexin V-FITC/7-AAD flow cytometry assay, Kasumi-1. Format: cell-based, human. The note with it: Kasumi-1, 50 μM, 24 h. The protocol: as §4
The test system of data set [15] is Kasumi-1. Nature of the data set: Cell cycle analysis (PI) and cell count, Kasumi-1. The note with it: Kasumi-1, 10 μM, 72 h. It is filed as cell-based, human. The protocol: The distribution of cell cycle phases was determined by propidium iodide (PI) staining and flow cytometry analysis. Kasumi-1 and Jurkat cells (10^5/mL) were treated with 10 (10 μM or 1 μM, respectively) for 72 h. Then, the cells were fixed and permeabilized as previously described and treated with 4 μg/mL RNase (Sigma Aldrich, St. Louis, MI, USA) for 45 min at 37 °C. For DNA labeling, cells were incubated with 5 μg/mL of PI (Sigma Aldrich, St. Louis, MI, USA). Percentages of cells within cell cycle compartments (G1/G0, S, and G2/M) were performed using an Accuri C6 flow cytometer (BD Biosciences, Mississauga, Canadá). A total of 40,000 events were acquired.

Data set [16] has as its system Jurkat. The data set can be described thus: Cell cycle analysis (PI) and cell count, Jurkat. Format: cell-based, human. The note with it: 10 μM, 72 h. As to the method:
The distribution of cell cycle phases was determined by propidium iodide (PI) staining and flow cytometry analysis. […] Then, the cells were fixed and permeabilized as previously described and treated with 4 μg/mL RNase (Sigma Aldrich, St. Louis, MI, USA) for 45 min at 37 °C. For DNA labeling, cells were incubated with 5 μg/mL of PI (Sigma Aldrich, St. Louis, MI, USA). Percentages of cells within cell cycle compartments (G1/G0, S, and G2/M) were performed using an Accuri C6 flow cytometer (BD Biosciences, Mississauga, Canadá). A total of 40,000 events were acquired.

As usually defined, the IC50 is the point on the concentration scale where inhibition reaches its midpoint. As usually defined, the EC50 is the concentration giving half of the maximal effect. High values mean weaker potency, low ones greater potency.

As for `Cc1cc(O)c2c(c1)C(=O)c1cc(O)cc(O)c1C2=O` [Compound 3, emodin], the concentration for half-maximal inhibition (IC50) in [1] was 35 µM.
`O=C1c2cc(CO)cc(O)c2C(=O)c2c1cc(O)c(Cl)c2O` [Compound 7, 2-chloro-1,3,8-trihydroxy-6-(hydroxymethyl)anthracene-9,10-dione]: the “activity against Jurkat” value in data set [2] is “inactive”. In addition, in data set [3], the “activity against K-562” value is “inactive”. Further, the cell viability result in [4] and in [5] was “reduction in cell viability” throughout. In addition, the “activity against Hela” value in data set [6] was “inactive”.
Consider `Cc1cc(O)c2c(c1)C(=O)c1cc(O)c(Cl)c(O)c1C2=O` [Compound 8, 7-chloroemodin], for which the IC50 in data set [7] is 12.6 µM. Further, the cell viability result in [4] and in data set [5] was “reduction in cell viability” each time.
Turning to `CSC12CC3=COC=CC(OC(C)=O)C3N1C(=O)C1(SC)CC3=COC=CC(OC(C)=O)C3N1C2=O` (stereo not shown) [Compound 9, bisdethiobis(methylthio)acetylaranotine], the cell viability result in data set [4] and in [5] was “reduction in cell viability” each time.
Regarding `C=CC(C)(C)c1[nH]c2ccccc2c1CC1NC(=O)C(Cc2c(C(C)(C)C=C)[nH]c3ccccc23)NC1=O` (stereo not shown) [Compound 10, fellutanine C], the “cytotoxicity effect on normal PBMC cells” value in data set [8] is given as “did not show a cytotoxicity effect”. Besides, the cleaved-caspase-3 entry in data set [9] and in data set [10] was “increased cleaved-caspase-3” in each case. The “expression of mature myeloid marker CD11b” value in [11] was “did not produce an increase in the expression of CD11b”. Further, the 50% inhibitory concentration (IC50) in [12] was 9.34 µM. The “cell death mode (Annexin V-FITC and 7-AAD staining)” value is “predominant double staining (late apoptosis and necrosis-like)” in [13]; “predominant apoptosis staining (Anx-FITC+/7 AAD-)” in data set [14]. Further, the cell viability entry in data set [4] and in [5] was “reduction in cell viability” in each case. Also, the EC50 in [4] (Homo sapiens, concentration-response curve, 24 h, resazurin) is 50 µM; in data set [5] (Homo sapiens, Kasumi-1, concentration-response curve, 24 h, resazurin), 50 µM. The “cell proliferation (cell count)” value in data set [15] and in [16] was “reduction in cell proliferation” in each case. Also, the “cell viability at the cell cycle concentration” value in [15] and in [16] was “did not observe a reduction in cell viability” in each case. Also, the cell cycle distribution entry in [15] (PI staining) and in [16] (PI staining) was “cell cycle arrest in G0/G1” each time.
